This is an account of results in patent US9400283B2, “In vitro method using human skin for evaluating the influence of ABC transporters” (GALDERMA RESEARCH & DEVELOPMENT, priority 2011, dated 2016).

The test system of data set [1] is human skin samples. The data set can be described thus: Cutaneous distribution of LTC4 by autoradiography of skin sections. The class given is in vitro ADME. Here is the method: The distribution of Vinblastine in the skin was analyzed by autoradiography. Skin samples were placed in a tissue holder and freeze-mounted in cryomount embedding medium. The frozen blocks were sectioned into slices 8-10 μm thick, perpendicular to the epidermal surface in a cryomicrotome (Thermo Electron). The sections were collected on glass slides and dried. Cryosections were placed on a Fuji imaging plate type Bas-III (20×40 cm) in a Fujix Bas cassette 2040 during 24 hours to 5 days. The exposed plate was scanned with a Bio-Imaging analyzer (Fujix BAS 2000). The scanned images were analyzed using TINA software.
The distribution of the LTC4 in the skin was analyzed by autoradiography. The experimental conditions are identical to those described previously for vinblastine.

The test system of data set [2] is human skin samples. The data set can be described thus: In vitro cutaneous absorption of LTC4 (receptor fluid, liquid scintillation counting). It counts as in vitro ADME. Particulars: 68.5 nM LTC4 10 μL/cm2, 6 hours. The procedure:
Tritium labeled LTC4 was used. The concentration of the LTC4 solution used was 68.5 nM (0.01 mCi/mL).
At the end of the period of treatment with the inhibitor, the skin samples, both the control samples and those treated with the inhibitor, were treated with the LTC4 solution. […] The duration of the treatment with LTC4 was 6 hours.
The in vitro LTC4 skin absorption experiments were performed with fresh skin samples originating from three different donors. The experiments were performed in 6-well Transwell plates, with a 1 cm^2 area of treated skin and receptor fluid volumes of 1.5 mL. The treatment volume for the skin surface was 10 μL, corresponding to 0.69 […] and 222 000 dpm. Three different experiments were performed with skin samples originating from three different donors. In each experiment, each condition was performed in triplicate (N=9 in total).

Data set [3] relates to human skin samples. The data set can be described thus: Skin distribution of Rhodamine 123 by epifluorescence microscopy. Conditions: skin samples treated with Verapamil, data not shown. It counts as in vitro ADME.
Data set [4] deals with ex vivo human skin samples. The data set can be described thus: In vitro skin absorption of vinblastine (receptor fluid, liquid scintillation counting). Conditions: for vinblastine skin absorption (amount in receptor fluid): 16 hours.

Molecules are shown by their SMILES.

Consider `CCCCC/C=C\C\C=C/C=C/C=C/[C@@H](SC[C@H](NC(=O)CC[C@H](N)C(=O)O)C(=O)NCC(=O)O)[C@@H](O)CCCC(=O)O` [LTC4, leukotriene-C4], for which, in the data set with human skin samples [1] (skin sections without treatment with the inhibitor), the “cutaneous distribution of LTC4 (autoradiography signal)” value is reported as “a radioactive signal related to LTC4 is observed in the uppermost part of the skin section corresponding to the epidermis”. Besides, the “cutaneous absorption of LTC4, share of the applied dose” value with human skin samples [2] is “about 1.7 % of the applied dose”.
Turning to `CN(C)C(=O)CCSC(SCCC(=O)O)c1cccc(/C=C/c2ccc3ccc(Cl)cc3n2)c1` (stereo not shown) [MK571], in the data set on human skin samples [1] (skin treated with the inhibitor MK571), the “effect of MK571 on cutaneous distribution of LTC4 (autoradiography signal)” value was “appreciable increase in the intensity of the signal related to LTC4”.
For the compound `COc1ccc(CCN(C)CCCC(C#N)(c2ccc(OC)c(OC)c2)C(C)C)cc1OC` (stereo not shown) [verapamil, Verapamil], in the data set with human skin samples [3], the “effect of Verapamil on Rhodamine 123 fluorescence intensity in skin sections” value was “No difference in fluorescence intensity”.
Turning to `CC[C@]1(O)C[C@@H]2CN(CCc3c([nH]c4ccccc34)[C@@](C(=O)OC)(c3cc4c(cc3OC)N(C)[C@H]3[C@@](O)(C(=O)OC)[C@H](OC(C)=O)[C@]5(CC)C=CCN6CC[C@]43[C@@H]65)C2)C1` [vinblastine, Vinblastine], the “vinblastine skin absorption (amount in receptor fluid)” value in data set [4] (dermarolled skin (32 roller passages)) is 0.6 nmol; in data set [4] (intact human skin) it was 0.003 nmol; in data set [4] (tape stripped skin (30 stripes)), 0.07 nmol. Moreover, the “increase of vinblastine skin absorption by skin perforation by dermaroller” value in data set [4] (dermarolled versus intact skin) is given as “about 200 times”. Further, the “vinblastine skin absorption, share of the applied dose” value in data set [4] (intact human skin, 2.5 mM [3H]-vinblastine 10 μL/cm2, 16 hours, receptor fluid) is given as 0.001 % of the applied dose. The “increase of vinblastine skin absorption by tape stripping” value in data set [4] (stripped versus intact skin) is “about 20 times”.
